Here are results for seven compounds from PubChem BioAssay (NCI).

Each structure is given as a SMILES string.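 Tested at 5 concentrations; 48 h exposure; 96-well plates; endpoints linearly interpolated, else capped at highest concentration. GI50 marks 50% less growth. TGI: concentration producing complete growth inhibition.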 Bounds are passed on as bounds.

Holding throughout (experiment): NCI anticancer screen, dose series, 48 h
Experiment [1] deals with UACC-62 melanoma.
The test system of experiment [2] is T-47D breast.
The subject of experiment [3] is HL-60(TB) leukemia.
In experiment [4] the test system is NCI-H522 lung.
Experiment [5] deals with SF-539 CNS.
Experiment [6] relates to SK-MEL-5 melanoma.
Experiment [7] relates to OVCAR-4 ovarian.
Experiment [8] relates to HOP-62 NSCLC.
Experiment [9] deals with NCI/ADR-RES ovarian.
Experiment [10] relates to HS 578T breast.

Turning to `COc1ccc(-c2nn3ncccc3c2-c2ccnc(Nc3ccc(F)c(F)c3)n2)cc1`, the GI50 in experiment [1] was 7.12 µM; in experiment [2], 6.42 µM; in experiment [3], 13.2 µM; in experiment [4], 8.18 µM; in [5], greater than 19.2 µM; in experiment [6], 8.08 µM. The GI50 in experiment [7] is 12.4 µM; in experiment [8] it was 14.1 µM; in experiment [9] it was 8.27 µM; in [10], 9.2 µM. The TGI in [1] is greater than 25 µM; in [2], greater than 25 µM; in experiment [3], greater than 25 µM; in experiment [4], greater than 23.6 µM; in experiment [5], greater than 25 µM; in experiment [6], greater than 25 µM. Besides, the TGI in experiment [7], in experiment [8], in experiment [9] and in experiment [10] was greater than 25 µM each time.

In the case of `Cc1ccc(/C=C/C(=O)c2ccc(F)cc2)s1`, the GI50 in experiment [1] was 6.86 µM; in [2] it was 4.71 µM; in experiment [3], 2.26 µM; in experiment [4] it was 1.71 µM; in experiment [5] it was 3.56 µM; in [6], 12.2 µM. The GI50 in [7] was 11.7 µM; in experiment [8] it was 14.2 µM; in [9] it was 3.68 µM; in experiment [10], 3.35 µM. Besides, the TGI in experiment [1] was found to be 21.3 µM; in experiment [2], 23.5 µM; in experiment [3], 7.22 µM; in experiment [4], 3.57 µM; in experiment [5], 10.2 µM; in [6], 24.9 µM. The TGI in [7] worked out at 29.8 µM; in experiment [8] it was 28 µM; in experiment [9], 17.6 µM; in experiment [10], 9.7 µM.

Consider `Cc1ccc(NC(=O)c2ccoc2)cc1-c1ccc(C(=O)NCC2CC2)cc1`, for which the GI50 in [1] is 13.9 µM; in experiment [2], 7.16 µM; in experiment [3], greater than 20.4 µM; in experiment [4] it was greater than 15.9 µM; in [5], greater than 25 µM; in experiment [6], 7.75 µM. Moreover, the GI50 in experiment [7] was greater than 18.8 µM; in experiment [8] it was greater than 25 µM; in experiment [9] it was greater than 18.8 µM; in experiment [10] it was greater than 19.3 µM. Besides, the TGI in experiment [1], in [2], in experiment [3], in experiment [4], in experiment [5] and in [6] was greater than 25 µM throughout. The TGI in experiment [7], in experiment [8], in experiment [9] and in [10] was greater than 25 µM in each case.

On to `CC(C)Cn1cnc2c(N)nc3ccccc3c21`, for which the GI50 in [1] was 38.4 µM; in experiment [2], 41.6 µM; in [3], greater than 47.7 µM; in experiment [4] it was 78.5 µM; in [5] it was 42.9 µM; in experiment [6] it was 18.4 µM. In addition, the GI50 is 67.2 µM in experiment [7], 22.5 µM in [8], 49 µM in experiment [9] and 60.8 µM in experiment [10]. Moreover, the TGI in [1] is greater than 100 µM; in experiment [2] it was greater than 100 µM; in [3], greater than 100 µM; in [4], greater than 100 µM; in experiment [5], greater than 100 µM; in experiment [6], 50.3 µM. Further, the TGI in experiment [7] was greater than 100 µM; in [8], greater than 64.1 µM; in [9] it was greater than 100 µM; in [10], greater than 100 µM.

On to `C=CCn1c(SCC(=O)Nc2ccc(C(=O)/C=C/c3cc(OC)c(OC)c(OC)c3)cc2)nnc1-c1cc(OC)c(OC)c(OC)c1`, for which the GI50 in [1] was 3.31 µM; in [2] it was 5.44 µM; in [3] it was 2.88 µM; in experiment [4], 6.89 µM; in experiment [5], 2.52 µM; in experiment [6] it was 4.27 µM. The GI50 in [7] was 5.67 µM; in [8], 5.17 µM; in experiment [9], 15.3 µM; in experiment [10], 4.66 µM. In addition, the TGI in experiment [1] was determined as 17.5 µM; in experiment [2], 40.7 µM; in experiment [3], 33 µM; in experiment [4], 27.2 µM; in [5], 8.83 µM; in experiment [6] it was 16 µM. Moreover, the TGI is 38.6 µM in experiment [7], 37.9 µM in experiment [8], greater than 100 µM in experiment [9] and greater than 100 µM in experiment [10].

`O=C(Nc1ccccc1/C=C/c1n[nH]c2ccccc12)c1ccccc1`: the GI50 in [1] is 2.88 µM; in experiment [2], 3.77 µM; in experiment [3], 0.589 µM; in experiment [4] it was 9.28 µM; in experiment [5], 4.26 µM; in experiment [6], 3.81 µM. In addition, the GI50 in experiment [7] was 9.46 µM; in experiment [8], 2.15 µM; in experiment [9] it was 4.69 µM; in [10] it was 3.64 µM. Further, the TGI in [1] came out at 13 µM; in experiment [2], 15.8 µM; in experiment [3], 16.2 µM; in experiment [4], 24 µM; in experiment [5], 14.1 µM; in [6] it was 16.5 µM. Moreover, the TGI in experiment [7] is 24.7 µM; in experiment [8], 6.13 µM; in [9] it was 20 µM; in experiment [10] it was 17.7 µM.

On to `CN1CCN(CCCOC(=O)c2c3c(n4ccccc24)C(=O)c2ncccc2C3=O)CC1`, for which the GI50 in experiment [1] was less than 0.01 µM; in [2] it was 1.89 µM; in experiment [3], 0.0684 µM; in experiment [4], less than 0.01 µM; in experiment [5], less than 0.0154 µM; in experiment [6], 0.0269 µM. For the same compound, the GI50 in experiment [7] was 0.537 µM; in [8] it was less than 0.01 µM; in experiment [9] it was less than 0.0107 µM; in [10], less than 0.0268 µM. Besides, the TGI in [1] was 0.0324 µM; in experiment [2] it was 29.6 µM; in experiment [3], 14.6 µM; in [4], less than 0.0164 µM; in experiment [5], 0.103 µM; in [6] it was 0.592 µM. Besides, the TGI in [7] was 3.78 µM; in [8], 0.0393 µM; in [9], 12.9 µM; in experiment [10] it was 1.15 µM.
